Counter-ions that a name gives are not always drawn.
Legend:
JH2 domain of human Tyk2 = biological target: T1, JH2 domain of human Tyk2 (Homo sapiens, UniProt P29597); experiment: JH2 biochemical assay (TR-FRET probe displacement); type: binding
T1 construct: 10×His-tagged TYK2 JH2 domain (amino acid 575-876)
Method in brief: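 10×His-tagged human TYK2 JH2 (aa 575-876, 2 nM) incubated 60 min with 2 nM fluorescent probe, 0.1 nM Tb anti-His antibody and compound (10-point 3-fold series from […] top). TR-FRET 520/495 nm ratio, falling with probe displacement, normalized and fitted to a 4-parameter logistic for IC50.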

[1] = tested on: Tyk2 kinase activity on STAT4; experiment: pSTAT4 cell assay (MSD, NK92 cells); type: cell-based; conditions: compounds 1 hr
Method in brief: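 IC50 values derive from 4-parameter logistic fits of normalized percent activity against log compound concentration. Phospho-STAT was measured by MSD with anti-STAT4 antibodies after 15 min of 30 ng/mL IL2 in serum-starved NK92 cells pretreated 1 hr with compound.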

T1 sequence (P29597 575-876): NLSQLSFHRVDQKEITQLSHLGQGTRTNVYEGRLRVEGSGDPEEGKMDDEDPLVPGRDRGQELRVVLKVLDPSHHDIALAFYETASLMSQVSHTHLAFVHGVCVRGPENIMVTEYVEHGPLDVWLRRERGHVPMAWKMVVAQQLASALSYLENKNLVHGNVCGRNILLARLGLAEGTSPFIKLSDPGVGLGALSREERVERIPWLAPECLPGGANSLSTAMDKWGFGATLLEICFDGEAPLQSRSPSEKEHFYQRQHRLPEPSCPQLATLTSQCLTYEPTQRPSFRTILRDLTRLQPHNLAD

Structure (SMILES) | IC50 (JH2 domain of human Tyk2; JH2 biochemical assay) [nM] | IC50 ([1]; stimulated 15 minutes) [nM] | IC50 (JH2 domain of human Tyk2; TR-FRET probe displacement, JH2 domain of human Tyk2) [nM] | IC50 ([1]; then stimulated 15 minutes) [nM]
CC(=O)Nc1cc2c(cn1)C1(CC1)CN2c1cc(-c2ccn(C)n2)nc(C(C)(F)F)n1 [Example 241, N-(1′-(2-(1,1-difluoroethyl)-6-(1-methyl-1H-pyrazol-3-yl)pyrimidin-4-yl)-1′,2′-dihydrospiro[cyclopropane-1,3′-pyrrolo[3,2-c]pyridin]-6′-yl)acetamide] | ≤ 10 | 10 to 100 |  | 
CC(=O)Nc1cc2c(cn1)C1(CC1)CN2c1cc(C)cc(C2(F)CC2)n1 [Example 279, N-(1′-(6-(1-fluorocyclopropyl)-4-methylpyridin-2-yl)-1′,2′-dihydrospiro[cyclopropane-1,3′-pyrrolo[3,2-c]pyridin]-6′-yl)acetamide] | 10 to 100 | 100 to 1000 |  | 
CC(=O)Nc1cc2c(cn1)C1(CC1)CN2c1cc(C)cc(N2CCC(C)(O)C2)n1 (centres unmarked) [Example 405, N-(1′-(6-(3-hydroxy-3-methylpyrrolidin-1-yl)-4-methylpyridin-2-yl)-1′,2′-dihydrospiro[cyclopropane-1,3′-pyrrolo[3,2-c]pyridin]-6′-yl)acetamide trifluoroacetate] |  |  | 100 to 1000 | ≥ 1000
CO[C@H]1C[C@@H](Nc2cc(N3CC4(CC4)c4cnc(NC(C)=O)cc43)nc(C(C)(F)F)n2)C1 [Example 172, N-(1′-(2-(1,1-difluoroethyl)-6-(((1s,3s)-3-methoxycyclobutyl)amino)pyrimidin-4-yl)-1′,2′-dihydrospiro[cyclopropane-1,3′-pyrrolo[3,2-c]pyridin]-6′-yl)acetamide trifluoroacetate] | ≤ 10 | 10 to 100 |  | 
CC(=O)Nc1cc2c(cn1)C1(CC1)CN2c1cc(N(C)C)nc(C(C)(F)F)n1 [Example 20, N-(1′-(2-(1,1-difluoroethyl)-6-(dimethylamino)pyrimidin-4-yl)-1′,2′-dihydrospiro[cyclopropane-1,3′-pyrrolo[3,2-c]pyridin]-6′-yl)acetamide] | ≤ 10 | 100 to 1000 |  | 
COCCOc1cc(C)cc(N2CC3(CC3)c3cnc(NC(C)=O)cc32)n1 [Example 357, N-(1′-(6-(2-methoxyethoxy)-4-methylpyridin-2-yl)-1′,2′-dihydrospiro[cyclopropane-1,3′-pyrrolo[3,2-c]pyridin]-6′-yl)acetamide trifluoroacetate] | 10 to 100 | ≥ 1000 |  | 
COC1(CNc2cc(N3CC4(CC4)c4cnc(NC(C)=O)cc43)nc(C(C)(F)F)n2)CC1 [Example 161, N-(1′-(2-(1,1-difluoroethyl)-6-(((1-methoxycyclopropyl)methyl)amino)pyrimidin-4-yl)-1′,2′-dihydrospiro[cyclopropane-1,3′-pyrrolo[3,2-c]pyridin]-6′-yl)acetamide trifluoroacetate] | ≤ 10 | 10 to 100 |  | 
CC(=O)Nc1cc2c(cn1)C1(CC1)CN2c1cc(OC2(C#N)CC2)nc(C(C)(F)F)n1 [Example 144, N-(1′-(6-(1-cyanocyclopropoxy)-2-(1,1-difluoroethyl)pyrimidin-4-yl)-1′,2′-dihydrospiro[cyclopropane-1,3′-pyrrolo[3,2-c]pyridin]-6′-yl)acetamide trifluoroacetate] | 10 to 100 | ≥ 1000 |  | 
Cc1cc(N2CC3(CC3)c3cnc(NC(=O)N(C)C)cc32)nc(C(C)(F)F)n1 [Example 278, 3-(1′-(2-(1,1-difluoroethyl)-6-methylpyrimidin-4-yl)-1′,2′-dihydrospiro[cyclopropane-1,3′-pyrrolo[3,2-c]pyridin]-6′-yl)-1,1-dimethylurea] | 100 to 1000 | ≥ 1000 |  | 
CC(=O)Nc1cc2c(cn1)C1(CC1)CN2c1cc(C)cc(-c2cnn(C3CC3)c2)n1 [Example 264, N-(1′-(6-(1-cyclopropyl-1H-pyrazol-4-yl)-4-methylpyridin-2-yl)-1′,2′-dihydrospiro[cyclopropane-1,3′-pyrrolo[3,2-c]pyridin]-6′-yl)acetamide trifluoroacetate] | 10 to 100 | ≥ 1000 |  | 
COCCOc1nc(N2CC3(CC3)c3cnc(NC(C)=O)cc32)cc(C(C)(F)F)n1 [Example 287, N-(1′-(6-(1,1-difluoroethyl)-2-(2-methoxyethoxy)pyrimidin-4-yl)-1′,2′-dihydrospiro[cyclopropane-1,3′-pyrrolo[3,2-c]pyridin]-6′-yl)acetamide] | ≤ 10 | 100 to 1000 |  | 
CC(=O)Nc1cc2c(cn1)C1(CC1)CN2c1cc(C)cc(N2CC(C(F)F)C2)n1 [Example 201, N-(1′-(6-(3-(difluoromethyl)azetidin-1-yl)-4-methylpyridin-2-yl)-1′,2′-dihydrospiro[cyclopropane-1,3′-pyrrolo[3,2-c]pyridin]-6′-yl)acetamide trifluoroacetate] | 10 to 100 | ≥ 1000 |  | 
CC(=O)Nc1cc2c(cn1)C1(CC1)CN2c1cc(Oc2cnn(C)c2)nc(C(C)(F)F)n1 [Example 145, N-(1′-(2-(1,1-difluoroethyl)-6-((1-methyl-1H-pyrazol-4-yl)oxy)pyrimidin-4-yl)-1′,2′-dihydrospiro[cyclopropane-1,3′-pyrrolo[3,2-c]pyridin]-6′-yl)acetamide trifluoroacetate] | 10 to 100 | 100 to 1000 |  | 
CC(=O)Nc1cc2c(cn1)C1(CC1)CN2c1cc(C)nc(C(F)(F)F)n1 [Example 61, N-(1′-(6-methyl-2-(trifluoromethyl)pyrimidin-4-yl)-1′,2′-dihydrospiro[cyclopropane-1,3′-pyrrolo[3,2-c]pyridin]-6′-yl)acetamide] | 10 to 100 | ≥ 1000 |  | 
CC(=O)Nc1cc2c(cn1)C1(CC1)CN2c1cc(NCC(C)F)nc(C(C)(F)F)n1 (centres unmarked) [Example 169, N-(1′-(2-(1,1-difluoroethyl)-6-((2-fluoropropyl)amino)pyrimidin-4-yl)-1′,2′-dihydrospiro[cyclopropane-1,3′-pyrrolo[3,2-c]pyridin]-6′-yl)acetamide trifluoroacetate] | ≤ 10 | 10 to 100 |  | 
CC(=O)Nc1cc2c(cn1)C1(CC1)CN2c1nc(C2CCOC2)c(C)s1 (centres unmarked) [Example 82, N-(1′-(5-methyl-4-(tetrahydrofuran-3-yl)thiazol-2-yl)-1′,2′-dihydrospiro[cyclopropane-1,3′-pyrrolo[3,2-c]pyridin]-6′-yl)acetamide trifluoroacetate] | ≤ 10 | 100 to 1000 |  | 
CC(=O)Nc1cc2c(cn1)C1(CC1)CN2c1cc(C(C)(F)F)nc(Cl)n1 [Example 282, N-(1′-(2-chloro-6-(1,1-difluoroethyl)pyrimidin-4-yl)-1′,2′-dihydrospiro[cyclopropane-1,3′-pyrrolo[3,2-c]pyridin]-6′-yl)acetamide] | 100 to 1000 | ≥ 1000 |  | 
CC(=O)Nc1cc2c(cn1)C1(CC1)CN2c1cc(C)nc(N2CC(O)C2)n1 [Example 237, N-(1′-(2-(3-hydroxyazetidin-1-yl)-6-methylpyrimidin-4-yl)-1′,2′-dihydrospiro[cyclopropane-1,3′-pyrrolo[3,2-c]pyridin]-6′-yl)acetamide] | 10 to 100 | ≥ 1000 |  | 
CC(=O)Nc1cc2c(cn1)C1(CC1)CN2c1cc(C)nc(CO)n1 [Example 126, N-(1′-(2-(hydroxymethyl)-6-methylpyrimidin-4-yl)-1′,2′-dihydrospiro[cyclopropane-1,3′-pyrrolo[3,2-c]pyridin]-6′-yl)acetamide] | 10 to 100 | ≥ 1000 |  | 
CC(=O)Nc1cc2c(cn1)C1(CC1)CN2c1cc(C)cc(C(F)(F)CF)n1 [Example 316, N-(1′-(4-methyl-6-(1,1,2-trifluoroethyl)pyridin-2-yl)-1′,2′-dihydrospiro[cyclopropane-1,3′-pyrrolo[3,2-c]pyridin]-6′-yl)acetamide trifluoroacetate] | ≤ 10 | 10 to 100 |  | 
CC(=O)Nc1cc2c(cn1)C1(CC1)CN2c1cc(C)nc(N2CC(C#N)C2)n1 [Example 216, N-(1′-(2-(3-cyanoazetidin-1-yl)-6-methylpyrimidin-4-yl)-1′,2′-dihydrospiro[cyclopropane-1,3′-pyrrolo[3,2-c]pyridin]-6′-yl)acetamide] | 10 to 100 | 100 to 1000 |  | 
CC(=O)Nc1cc2c(cn1)C1(CC1)CN2c1cc(C)nc(N2CCN(C)CC2)n1 [Example 227, N-(1′-(6-methyl-2-(4-methylpiperazin-1-yl)pyrimidin-4-yl)-1′,2′-dihydrospiro[cyclopropane-1,3′-pyrrolo[3,2-c]pyridin]-6′-yl)acetamide] | 100 to 1000 | ≥ 1000 |  | 
CC(=O)Nc1cc2c(cn1)C1(CC1)CN2c1cc(C)cc(N2CC(O)C2)n1 [Example 193, N-(1′-(6-(3-hydroxyazetidin-1-yl)-4-methylpyridin-2-yl)-1′,2′-dihydrospiro[cyclopropane-1,3′-pyrrolo[3,2-c]pyridin]-6′-yl)acetamide] | 10 to 100 | ≥ 1000 |  | 
CC(=O)Nc1cc2c(cn1)C1(CC1)CN2c1ccc(F)c(C(C)(F)F)n1 [Example 7, N-(1′-(6-(1,1-difluoroethyl)-5-fluoropyridin-2-yl)-1′,2′-dihydrospiro[cyclopropane-1,3′-pyrrolo[3,2-c]pyridin]-6′-yl)acetamide] | ≤ 10 | 100 to 1000 |  | 
CC(=O)Nc1cc2c(cn1)C1(CC1)CN2c1cc(NCC(C)N(C)C)nc(C(C)(F)F)n1 (centres unmarked) [Example 180, N-(1′-(2-(1,1-difluoroethyl)-6-((2-(dimethylamino)propyl)amino)pyrimidin-4-yl)-1′,2′-dihydrospiro[cyclopropane-1,3′-pyrrolo[3,2-c]pyridin]-6′-yl)acetamide trifluoroacetate] | 10 to 100 | 100 to 1000 |  | 

From US20260258032A1, “TYROSINE KINASE 2 INHIBITORS AND USES THEREOF” (BIOGEN MA INC., priority 2022, published 2026)
